Data reported in patent US5637318A, “Dermatological agent for assisting the transport of oxygen in the skin” (Lancaster Group AG, priority 1992, dated 1997).
Where two headings read alike, the source gives them in different places.

How the values were obtained:
[1] = 37° C.; cited from earlier work
[2] = Critical solubility temperature (CST) in n-hexane; type: physicochemical; conditions: represented by CST in n-hexane
Description: The choice of fluorocarbons or mixtures thereof according to their lipid solubility (represented by their critical solubility temperature CST in n-hexane) permits, as a further important criterion, the regulation of the residence time in the tissue.

skin tissue [3] = assay: Penetration and residence of labelled encapsulated fluorocarbons in skin tissue, animal experiments
Description: (§1) It was possible to determine the dependence of the penetration rate and the depth of penetration of the particle size of the aggregates experimentally by separate investigations in animal experiments using labelled encapsulated fluorocarbons. […] The choice of fluorocarbons or mixtures thereof according to their lipid solubility (represented by their critical solubility temperature CST in n-hexane) permits, as a further important criterion, the regulation of the residence time in the tissue.

skin tissue [4] = conditions: in vivo
Description: as §1

Row | SMILES | Vapour Pressure [1] [mm Hg] | lipid solubility [2] | residence time in the tissue / release from the tissue (skin tissue [3]) | residence time in the tissue / release from the tissue (skin tissue [4])
1 | FC1(F)OC(F)(F)C(F)(F)N(C(F)(F)C2(F)C(F)(F)C(F)(F)C(F)(F)C(F)(F)C2(F)F)C1(F)F [F-cyclohexylmethyl-morpholine] | 4 | – | – | –
2 | FC(F)(F)C(F)(F)C(F)(F)C(F)(F)C(F)(F)C(F)(F)OC(F)(F)C(F)(F)C(F)(F)C(F)(F)C(F)(F)C(F)(F)F [F-dihexyl ether] | 2 | – | – | –
3 | FC(F)(F)C(F)(F)C(F)(F)C(F)(F)C(F)(F)C(F)(F)F [F-hexane] | 414 | – | – | –
4 | FC(F)(F)C1(F)C(F)(F)C(F)(F)C(F)(F)C(F)(F)C1(F)F [F-methylcyclohexane] | 180 | – | – | –
5 | FC(F)(F)C(F)(F)C(F)(F)C(F)(F)N(C(F)(F)C(F)(F)C(F)(F)C(F)(F)F)C(F)(F)C(F)(F)C(F)(F)C(F)(F)F [F-tributylamine] | 1 | poor lipid solubility | relatively large residence time | –
6 | FC(F)(F)C(F)(F)C(F)(F)N(C(F)(F)C(F)(F)C(F)(F)F)C(F)(F)C(F)(F)C(F)(F)F [F-tripropylamine] | 18.5 | – | – | –
7 | FC(F)(F)C(F)(F)C(F)(F)C(F)(F)C1(F)OC(F)(F)C(F)(F)C1(F)F (centres unmarked) [Perfluorobutyl-tetrahydrofuran] | 51 | – | released correspondingly more rapidly from the tissue | –
8 | FC1(F)C(F)(F)C(F)(F)C2(F)C(F)(F)C(F)(F)C(F)(F)C(F)(F)C2(F)C1(F)F (centres unmarked) [Perfluorodecalin] | 12.5 | – | – | released correspondingly more rapidly from the tissue
9 | FC(F)(F)C(F)(F)C(F)(F)C(F)(F)C(F)(F)C(F)(F)C(F)(F)C(F)(F)Br [Perfluorooctyl bromide] | 14 | – | – | –
10 | FC(F)(F)C(F)(F)C(F)(F)C(F)(F)C=CC(F)(F)C(F)(F)C(F)(F)C(F)(F)F [bis-F(butyl)ethene] | 12.6 | – | – | –
